According to patent US20020142982A1, “Method for regulating angiogenesis” (priority 1999, published 2002):

Test system: HUVEC
Assay: SPP-induced intracellular calcium in HUVEC (Indo-1 fluorescence)
Format: cell-based, human
Settings: HUVEC stimulated with SPP
Description: Functional assays were used to test for the presence of Gi-coupled and Gq-coupled SPP receptors in HUVEC. First, intracellular calcium levels were measured in response to SPP. For these experiments, cells were grown on 100-mm tissue culture dishes and loaded with the fluorescent calcium-sensitive dye, Indo-1 acetoxymethyl ester (Indo-1/AM, 5 μg/mL; Molecular Probes, Inc., Eugene, Oreg.), for 30 min at 37° C. Cells were then washed with medium M199, briefly trypsinized (0.05% porcine trypsin/0.02% EDTA in HBSS (JRH Biosciences, Lenexa, Kans.), and the trypsin activity was immediately neutralized with soybean trypsin inhibitor (5 μg/mL, Sigma Chemical Co., St. Louis, Mo.). Following centrifugation (250 g×5 min), cells were resuspended in M199 medium to a density of 2.7×10^5 cells/mL. Cells were then stimulated with different doses of SPP. Some cells were pretreated with the Gi inhibitor pertussis toxin (PTx, 500 ng-/mL) for 16 hours. Calcium ion concentration was then quantified by measuring changes in indo-1 fluorescence in 2 mL of cell suspension by a Hitachi F-2000 fluorescence Spectrophotometer with constant stirring. Fluorescence emission was monitored at 400 and 475 nm with excitation at 352 nm. [Ca^+2]1 was calculated as described in Volpi and Berlin, J. Cell Biol., Vol. 107, 2533-39 (1988).

SMILES: CCCCCCCCCCCCC/C=C/[C@@H](O)[C@@H](N)COP(=O)(O)O [SPP, sphingosine-1-phosphate]
- intracellular calcium response: robust calcium response
